The record followed here is patent publication US20030207812A1, “Cd45 inhibitors” (priority 2002, published 2003).

A short description of series [1]: in vitro. As to conditions: human.
Series [2] has as its target T1, CD45 (Homo sapiens, UniProt P08575).
T1 construct: incubating the cytosolic portion of CD45 with the compounds and p-nitrophenyl phosphate (pNPP); purchased BIOMOL (Plymouth Meeting, Pa.)
T1 sequence (P08575 599-1306 limits assumed): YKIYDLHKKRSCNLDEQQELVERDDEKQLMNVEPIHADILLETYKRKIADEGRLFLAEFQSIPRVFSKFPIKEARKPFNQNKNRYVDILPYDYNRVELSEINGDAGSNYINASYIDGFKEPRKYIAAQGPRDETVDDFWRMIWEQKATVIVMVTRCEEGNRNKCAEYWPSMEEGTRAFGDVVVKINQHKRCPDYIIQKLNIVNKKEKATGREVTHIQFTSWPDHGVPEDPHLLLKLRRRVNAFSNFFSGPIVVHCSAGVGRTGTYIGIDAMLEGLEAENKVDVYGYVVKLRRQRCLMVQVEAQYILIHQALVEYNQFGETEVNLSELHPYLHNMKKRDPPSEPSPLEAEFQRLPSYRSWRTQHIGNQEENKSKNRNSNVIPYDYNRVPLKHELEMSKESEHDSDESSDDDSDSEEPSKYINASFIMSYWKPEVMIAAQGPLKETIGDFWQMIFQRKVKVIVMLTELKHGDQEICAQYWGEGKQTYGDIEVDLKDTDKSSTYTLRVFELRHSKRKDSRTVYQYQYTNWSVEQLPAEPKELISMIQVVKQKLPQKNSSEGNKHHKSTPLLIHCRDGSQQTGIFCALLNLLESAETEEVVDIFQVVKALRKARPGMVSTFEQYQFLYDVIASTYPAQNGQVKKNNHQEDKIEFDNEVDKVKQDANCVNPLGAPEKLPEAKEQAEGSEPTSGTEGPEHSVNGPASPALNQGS
Briefly: Phosphatase assay using lck 10-mer as substrate. The series is classed as biochemical. The method in brief:
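Enzyme incubated with lck phosphopeptide TEGQpYQPQP for 1.5 h at room temperature in 25 mM HEPES pH 7.2, 5 mM DTT, 10 μg/mL BSA, 5% DMSO final. Compounds tested from 30 to 0.01 μM. Released phosphate detected with malachite-type Green Reagent, absorbance at 620 nm after 30 min.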

The target in series [3] is T1, CD45. Briefly: Phosphatase assay using pNPP as substrate. It counts as biochemical. How it is done:
Phosphatase assay using pNPP as substrate:
CD45 enzyme was obtained from BIOMOL (Plymouth Meeting, Pa.). Phosphatase activity was assayed in a buffer containing final concentrations of 25 mM imidazole at pH 7.0, 50 mM NaCl, 2.5 mM ethylenediaminetetraacetic acid (“EDTA”), 5 mM dithiothreitol (“DTT”) and 10 μg/mL bovine serum albumin (“BSA”) using pNPP as a substrate.

The subject of series [4] is T cells (PBMC). Briefly: cells. The series is classed as cell-based, human. Particulars: human PBMC, OKT3 30 ng/mL, [3H]thymidine; read-out: T cell prolif. IC50.
Setting [5] is: CD45 phosphatase, lck carboxy-terminal peptide TEGQpYQPQP substrate, pH 7.2, read-out: Ick IC50.

Where a SMILES comes first, the peptide text is derived from it. The star is where a group is joined. Phenanthrenequinone2carbonyl = O=C1C(=O)c2cc(C(=O)*)ccc2-c2ccccc21; 3Phenanthroyl(9,10-dioxo) = O=C1C(=O)c2ccc(C(=O)*)cc2-c2ccccc21 Bounds are passed on as bounds.

In the case of `NC(=O)CC[C@H](NC(=O)[C@@H]1CCCN1C(=O)[C@H](CCC(N)=O)NC(=O)CNC(=O)c1ccc2c(c1)-c1ccccc1C(=O)C2=O)C(=O)NCC(=O)O` [Example 36] ({3Phenanthroyl(9,10-dioxo)}-GQPQG-OH), in series [1], the CC50 is greater than 30 µM. For the same compound, the IC50 was 2.2 µM in series [2] (setting [5]) and 1 µM in series [3].

In the case of `NC(=O)CC[C@H](NC(=O)c1ccc2c(c1)-c1ccccc1C(=O)C2=O)C(=O)N[C@@H](CCC(N)=O)C(=O)N1CCC[C@H]1C(=O)N[C@@H](CCC(N)=O)C(=O)NCC(=O)O` [Example 37] ({3Phenanthroyl(9,10-dioxo)}-QQPQG-OH), the CC50 in series [1] is greater than 30 µM. In addition, the results for the IC50 in series [2] (setting [5]) and in series [3] were 2.1 µM and 1.1 µM, respectively.

For `NC(=O)CC[C@H](NC(=O)CNC(=O)c1ccc2c(c1)-c1ccccc1C(=O)C2=O)C(=O)N1CCC[C@H]1C(=O)N[C@@H](CCC(=O)O)C(=O)NCC(=O)O` [Example 39] ({3Phenanthroyl(9,10-dioxo)}-GQPEG-OH), the CC50 in series [1] was greater than 30 µM. Moreover, the IC50 in series [2] (setting [5]) came to 2.3 µM; in series [3] it was 0.7 µM.

Turning to `O=C(O)CC[C@H](NC(=O)[C@@H]1CCCN1C(=O)CNC(=O)CNC(=O)c1ccc2c(c1)C(=O)C(=O)c1ccccc1-2)C(=O)NCC(=O)O` [Example 40] (Phenanthrenequinone2carbonyl-GGPEG-OH), the CC50 in series [1] was greater than 30 µM. Moreover, the IC50 in series [2] is 3.9 µM; in series [3] (pH 7, read-out: pNPP IC50), 0.6 µM.

Compound `O=C(O)CC[C@H](NC(=O)c1ccc2c(c1)C(=O)C(=O)c1ccccc1-2)C(=O)NCC(=O)N1CCC[C@H]1C(=O)N[C@@H](CCC(=O)O)C(=O)NCC(=O)O` [Example 41] (Phenanthrenequinone2carbonyl-EGPEG-OH) registered a CC50 in series [1] greater than 30 µM. Further, the IC50 in series [2] turned out to be 3.5 µM; in series [3] (pH 7, read-out: pNPP IC50), 1.4 µM.

Take `N=C(N)NCCC[C@H](NC(=O)c1ccc2c(c1)C(=O)C(=O)c1ccccc1-2)C(=O)NCC(=O)N1CCC[C@H]1C(=O)N[C@@H](CCC(=O)O)C(=O)NCC(=O)O` [Example 42] (Phenanthrenequinone2carbonyl-RGPEG-OH): in series [1], the CC50 is greater than 30 µM. The half-inhibitory concentration (IC50) in series [2] was 3.5 µM; in series [3] (pH 7, read-out: pNPP IC50), 0.9 µM.

Take `O=C(O)CC[C@H](NC(=O)[C@@H]1CCCN1C(=O)[C@H](CCC(=O)O)NC(=O)CNC(=O)c1ccc2c(c1)C(=O)C(=O)c1ccccc1-2)C(=O)NCC(=O)O` [Example 43] (Phenanthrenequinone2carbonyl-GEPEG-OH): the CC50 in series [1] was greater than 30 µM. For the same compound, the concentration for half-maximal inhibition (IC50) in series [2] stood at 3.8 µM; in series [3] (pH 7, read-out: pNPP IC50), 1.9 µM.

The compound `O=C(O)CC[C@H](NC(=O)c1ccc2c(c1)C(=O)C(=O)c1ccccc1-2)C(=O)N[C@@H](CCC(=O)O)C(=O)N1CCC[C@H]1C(=O)N[C@@H](CCC(=O)O)C(=O)NCC(=O)O` [Example 44] (Phenanthrenequinone2carbonyl-EEPEG-OH) gave a CC50 in series [1] greater than 30 µM. Moreover, the IC50 was found to be 3.8 µM in series [2] and 1.1 µM in series [3] (pH 7, read-out: pNPP IC50).

Compound `N=C(N)NCCC[C@H](NC(=O)c1ccc2c(c1)C(=O)C(=O)c1ccccc1-2)C(=O)N[C@@H](CCC(=O)O)C(=O)N1CCC[C@H]1C(=O)N[C@@H](CCC(=O)O)C(=O)NCC(=O)O` [Example 45] (Phenanthrenequinone2carbonyl-REPEG-OH) registered a CC50 in series [1] greater than 30 µM. The IC50 turned out to be 3.9 µM in series [2] and 1.4 µM in series [3] (pH 7, read-out: pNPP IC50).

On to `N=C(N)NCCC[C@H](NC(=O)CNC(=O)c1ccc2c(c1)C(=O)C(=O)c1ccccc1-2)C(=O)N1CCC[C@H]1C(=O)N[C@@H](CCC(=O)O)C(=O)NCC(=O)O` [Example 46] (Phenanthrenequinone2carbonyl-GRPEG-OH), for which the CC50 in series [1] is greater than 30 µM. The half-inhibitory concentration (IC50) in series [2] was 3.8 µM; in series [3] (pH 7, read-out: pNPP IC50) it was 1 µM.

`N=C(N)NCCC[C@H](NC(=O)[C@H](CCC(=O)O)NC(=O)c1ccc2c(c1)C(=O)C(=O)c1ccccc1-2)C(=O)N1CCC[C@H]1C(=O)N[C@@H](CCC(=O)O)C(=O)NCC(=O)O` [Example 47] (Phenanthrenequinone2carbonyl-ERPEG-OH): the CC50 in series [1] is greater than 30 µM. Also, the IC50 in series [2] was found to be 4.2 µM; in series [3] (pH 7, read-out: pNPP IC50) it was 0.7 µM.

As to `N=C(N)NCCC[C@H](NC(=O)c1ccc2c(c1)C(=O)C(=O)c1ccccc1-2)C(=O)N[C@@H](CCCNC(=N)N)C(=O)N1CCC[C@H]1C(=O)N[C@@H](CCC(=O)O)C(=O)NCC(=O)O` [Example 48] (Phenanthrenequinone2carbonyl-RRPEG-OH), the CC50 in series [1] is greater than 30 µM. Also, the IC50 amounted to 5.7 µM in series [2] and 0.6 µM in series [3] (pH 7, read-out: pNPP IC50).

Consider `N=C(N)NCCC[C@H](NC(=O)[C@@H]1CCCN1C(=O)CNC(=O)CNC(=O)c1ccc2c(c1)C(=O)C(=O)c1ccccc1-2)C(=O)NCC(=O)O` [Example 49] (Phenanthrenequinone2carbonyl-GGPRG-OH), for which the CC50 in series [1] was greater than 30 µM. The IC50 came out at 6.1 µM in series [2] and 0.9 µM in series [3] (pH 7, read-out: pNPP IC50).

Regarding `N=C(N)NCCC[C@H](NC(=O)[C@@H]1CCCN1C(=O)CNC(=O)[C@H](CCC(=O)O)NC(=O)c1ccc2c(c1)C(=O)C(=O)c1ccccc1-2)C(=O)NCC(=O)O` [Example 50] (Phenanthrenequinone2carbonyl-EGPRG-OH), the CC50 in series [1] was greater than 30 µM. Besides, the IC50 came out at 2.8 µM in series [2] and 0.7 µM in series [3] (pH 7, read-out: pNPP IC50).

`N=C(N)NCCC[C@H](NC(=O)c1ccc2c(c1)C(=O)C(=O)c1ccccc1-2)C(=O)NCC(=O)N1CCC[C@H]1C(=O)N[C@@H](CCCNC(=N)N)C(=O)NCC(=O)O` [Example 51] (Phenanthrenequinone2carbonyl-RGPRG-OH) registered a CC50 in series [1] greater than 30 µM. Besides, the IC50 was 4.8 µM in series [2] and 1.1 µM in series [3] (pH 7, read-out: pNPP IC50).

Take `N=C(N)NCCC[C@H](NC(=O)[C@@H]1CCCN1C(=O)[C@H](CCC(=O)O)NC(=O)CNC(=O)c1ccc2c(c1)C(=O)C(=O)c1ccccc1-2)C(=O)NCC(=O)O` [Example 52] (Phenanthrenequinone2carbonyl-GEPRG-OH): the CC50 in series [1] is greater than 30 µM. Moreover, the IC50 in series [2] came to 3 µM; in series [3] (pH 7, read-out: pNPP IC50), 0.8 µM.

`N=C(N)NCCC[C@H](NC(=O)[C@@H]1CCCN1C(=O)[C@H](CCC(=O)O)NC(=O)[C@H](CCC(=O)O)NC(=O)c1ccc2c(c1)C(=O)C(=O)c1ccccc1-2)C(=O)NCC(=O)O` [Example 53] (Phenanthrenequinone2carbonyl-EEPRG-OH) gave a CC50 in series [1] greater than 30 µM. For the same compound, the IC50 in series [2] was 3.7 µM; in series [3] (pH 7, read-out: pNPP IC50), 1 µM.

In series [1], `N=C(N)NCCC[C@H](NC(=O)c1ccc2c(c1)C(=O)C(=O)c1ccccc1-2)C(=O)N[C@@H](CCC(=O)O)C(=O)N1CCC[C@H]1C(=O)N[C@@H](CCCNC(=N)N)C(=O)NCC(=O)O` [Example 54] (Phenanthrenequinone2carbonyl-REPRG-OH) displayed a CC50 greater than 30 µM. In addition, the IC50 was 3.9 µM in series [2] (setting [5]) and 0.9 µM in series [3].

Take `N=C(N)NCCC[C@H](NC(=O)[C@@H]1CCCN1C(=O)[C@H](CCCNC(=N)N)NC(=O)CNC(=O)c1ccc2c(c1)C(=O)C(=O)c1ccccc1-2)C(=O)NCC(=O)O` [Example 55] (Phenanthrenequinone2carbonyl-GRPRG-OH): in series [1], the CC50 is greater than 30 µM. For the same compound, the IC50 is 4.7 µM in series [2] and 1.4 µM in series [3] (pH 7, read-out: pNPP IC50).

`N=C(N)NCCC[C@H](NC(=O)[C@@H]1CCCN1C(=O)[C@H](CCCNC(=N)N)NC(=O)[C@H](CCC(=O)O)NC(=O)c1ccc2c(c1)C(=O)C(=O)c1ccccc1-2)C(=O)NCC(=O)O` [Example 56] (Phenanthrenequinone2carbonyl-ERPRG-OH) gave a CC50 in series [1] greater than 30 µM. The IC50 in series [2] stood at 2.3 µM; in series [3] (pH 7, read-out: pNPP IC50) it was 0.8 µM.

In series [1], `N=C(N)NCCC[C@H](NC(=O)c1ccc2c(c1)C(=O)C(=O)c1ccccc1-2)C(=O)N[C@@H](CCCNC(=N)N)C(=O)N1CCC[C@H]1C(=O)N[C@@H](CCCNC(=N)N)C(=O)NCC(=O)O` [Example 57] (Phenanthrenequinone2carbonyl-RRPRG-OH) had a CC50 greater than 30 µM. Besides, the IC50 in series [2] was 3.2 µM; in series [3] (pH 7, read-out: pNPP IC50) it was 1.3 µM.

For `O=C1C(=O)c2ccccc2-c2ccccc21` [Example 106, 9,10-Phenanthrenedione], the CC50 in series [1] worked out at 1.3 µM. The IC50 in series [2] (pH 7.2, read-out: Ick IC50) was found to be 3.1 µM; in series [4] it was 0.3 µM; in series [3] (pH 7, read-out: pNPP IC50) it was 0.7 µM.
